Entries after “also recorded” stand apart in the source; their conditions may differ.
What was measured:
SARS-CoV-2 [1] = type: cell-based
SARS-CoV-2 [2] = type: cell-based; remark: listed apart in the source

CCC(CC)COC(=O)[C@H](C)N[P@](=O)(OC[C@H]1O[C@@](C#N)(c2ccc3c(N)ncnn23)[C@H](O)[C@@H]1O)Oc1ccccc1 [Remdesivir, reference compound]
Reversal of SARS-CoV-2 induced CPE (SARS-CoV-2 [1]): ~ 90%

CC(c1cccc2ccccc12)N1CCC(C(=O)NCc2cccc(F)c2)CC1 (stereo not drawn) [rac3k]
CPE reduction at lower concentrations (SARS-CoV-2 [1]): diminished | Effect on SARS-CoV-2-induced CPE (SARS-CoV-2 [1]): significantly rescued infected cells; also recorded: reduced SARS‐CoV‐2‐induced CPE | Remaining cell death (SARS-CoV-2 [1]): around 20% | Toxicity on Vero cells (Vero cells): no toxicity | Cellular toxicity (Vero cells; African green monkey): ~25%

CCN(CCO)CCCC(C)Nc1ccnc2cc(Cl)ccc12 (centres unmarked) [Hydroxychloroquine, reference compound]
Rescue of CPE (SARS-CoV-2 [1]): ~ 90% | Reduction of viral titre (SARS-CoV-2 [2]): 10 fold

From paper PMC7461020 (The EMBO Journal, 2020)
